Values quoted from earlier work in patent publication US20050065131A1, “2-alkylidene-19-nor-vitamin D derivatives for enhancement of peak bone mass in adolescence” (Pfizer Inc, priority 2003, published 2005).

Tested on: Bone Calcium Mobilization
Conditions: at both dose levels (130 and 260 pmol/day), 7 days

## C=C1[C@H](O)CC(=C/C=C2\CCC[C@]3(C)[C@@H]([C@H](C)CCCC(C)(C)O)CC[C@@H]23)C[C@H]1O [2-Methylene-19-Nor-1,25-(OH)2D3, 1α,25-dihydroxy-2-methylene-19-nor-vitamin D3]
  bone calcium mobilization, result in words: extremely strong
